In patent publication US20240158446A1, “CYCLIC COMPOUND HAVING SELECTIVE INHIBITORY ACTION ON KRAS OVER HRAS AND NRAS” (CHUGAI SEIYAKU KABUSHIKI KAISHA, priority 2021, published 2024):

Legend:
[1] = biological target: GDP-bound NRAS wild-type protein (Homo sapiens, UniProt P01111); assay: Binding to NRAS by surface plasmon resonance (SPR), Single Cycle Kinetics; details: SPR, GDP-bound NRAS wild-type protein vs GDP-bound KRAS wild-type protein
[2] = biological target: GDP-bound HRAS wild-type protein (Homo sapiens, UniProt P01112); assay: Binding to HRAS by surface plasmon resonance (SPR), Single Cycle Kinetics; details: SPR, GDP-bound HRAS wild-type protein vs GDP-bound KRAS wild-type protein
Chain of GDP-bound HRAS wild-type protein (P01112 whole entry): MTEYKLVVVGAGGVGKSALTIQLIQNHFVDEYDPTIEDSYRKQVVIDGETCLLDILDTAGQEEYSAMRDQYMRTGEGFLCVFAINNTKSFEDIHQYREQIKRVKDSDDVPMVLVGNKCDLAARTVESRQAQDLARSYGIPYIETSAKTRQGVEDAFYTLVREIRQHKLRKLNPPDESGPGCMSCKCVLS

Chain of GDP-bound NRAS wild-type protein (P01111 whole entry): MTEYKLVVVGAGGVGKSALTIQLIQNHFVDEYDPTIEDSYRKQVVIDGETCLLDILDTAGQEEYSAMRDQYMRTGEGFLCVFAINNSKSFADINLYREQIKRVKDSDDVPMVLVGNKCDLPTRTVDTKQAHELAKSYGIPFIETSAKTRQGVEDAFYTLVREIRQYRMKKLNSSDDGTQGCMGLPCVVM

Row | Compound | NRAS/KRAS (ratio of KD value with respect to NRAS to KD value with respect to KRAS) [1] | HRAS/KRAS (ratio of KD value with respect to HRAS to KD value with respect to KRAS) [2] | NRAS/KRAS (ratio of KD value for NRAS to KD value for KRAS) [1] | HRAS/KRAS (ratio of KD value for HRAS to KD value for KRAS) [2]
1 | CCO[C@@H]1C[C@H]2C(=O)NC3(CCC3)C(=O)N(C)[C@@H](C3CCCC3)C(=O)N(C)[C@H](C(=O)N3CCOCC3)CC(=O)N(C)[C@@H](CC3CCC3)C(=O)N[C@@H]([C@@H](C)CC)C(=O)N(C)CC(=O)N(C)[C@H]3CCCCCN(C3=O)[C@@H](Cc3ccc(C(F)(F)F)cc3)C(=O)N(C)CC(=O)N[C@@H](CCc3cc(F)c(C(F)(F)F)c(F)c3)C(=O)N2C1 [PP0683] | B (a compound having 3 or more and less than 10 is denoted as B) | B (a compound having 3 or more and less than 10 is denoted as B) |  | 
2 | CCO[C@@H]1C[C@H]2C(=O)NC3(CCC3)C(=O)N(C)[C@@H](C3CCCC3)C(=O)N(C)[C@H](C(=O)N3CCOCC3)CC(=O)N(C)[C@@H](CC(C)(C)C)C(=O)N[C@@H]([C@@H](C)CC)C(=O)N(C)CC(=O)N(C)[C@H]3CCCCCN(C3=O)[C@@H](Cc3ccc(C(F)(F)F)cc3)C(=O)N(C)CC(=O)N[C@@H](CCc3cc(F)c(C(F)(F)F)c(F)c3)C(=O)N2C1 [PP0684] | B (a compound having 3 or more and less than 10 is denoted as B) | B (a compound having 3 or more and less than 10 is denoted as B) |  | 
3 | CCO[C@@H]1C[C@H]2C(=O)NC3(CCC3)C(=O)N(C)[C@@H](C3CCCC3)C(=O)N(C)[C@H](C(=O)N3CCOCC3)CC(=O)N(C)[C@@H](CC3CCCC3)C(=O)N[C@@H]([C@@H](C)CC)C(=O)N(C)CC(=O)N(C)[C@H]3CCCCCN(C3=O)[C@@H](Cc3ccc(C(F)(F)F)cc3)C(=O)N(C)CC(=O)N[C@@H](CCc3cc(F)c(C(F)(F)F)c(F)c3)C(=O)N2C1 [PP0685] | B (a compound having 3 or more and less than 10 is denoted as B) | B (a compound having 3 or more and less than 10 is denoted as B) |  | 
4 | CCO[C@@H]1C[C@H]2C(=O)NC3(CCC3)C(=O)N(C)[C@@H](C3CCCC3)C(=O)N(C)[C@H](C(=O)N3CCOCC3)CC(=O)N(C)[C@@H](CC3CCCCC3)C(=O)N[C@@H]([C@@H](C)CC)C(=O)N(C)CC(=O)N(C)[C@H]3CCCCCN(C3=O)[C@@H](Cc3ccc(C(F)(F)F)cc3)C(=O)N(C)CC(=O)N[C@@H](CCc3cc(F)c(C(F)(F)F)c(F)c3)C(=O)N2C1 [PP0686] | B (a compound having 3 or more and less than 10 is denoted as B) | B (a compound having 3 or more and less than 10 is denoted as B) |  | 
5 | CCO[C@@H]1C[C@H]2C(=O)NC3(CCC3)C(=O)N(C)[C@@H](C3CCCC3)C(=O)N(C)[C@H](C(=O)N(C)C)CC(=O)N(C)[C@@H](CC3CCCC3)C(=O)N[C@@H]([C@@H](C)CC)C(=O)N(C)CC(=O)N(C)[C@H]3CCCCN(C3=O)[C@@H](Cc3ccc(C(F)(F)F)cc3)C(=O)N(C)CC(=O)N[C@@H](CCc3cc(F)c(C(F)(F)F)c(F)c3)C(=O)N2C1 [PP0700] | C (A compound having a KD ratio of 0.1 or more and less than 3 is denoted as C) | B (a compound having 3 or more and less than 10 is denoted as B) |  | 
6 | CCO[C@@H]1C[C@H]2C(=O)NC3(CCC3)C(=O)N(C)[C@@H](C3CCCC3)C(=O)N(C)[C@H](C(=O)N(C)C)CC(=O)N(C)[C@@H](C)C(=O)N[C@@H]([C@H](C)CC)C(=O)N(C)CC(=O)N(C)[C@H]3CCCCCN(C3=O)[C@@H](Cc3ccc(C(F)(F)F)cc3)C(=O)N(C)CC(=O)N[C@@H](CCc3cc(F)c(C(F)(F)F)c(F)c3)C(=O)N2C1 [PP0729] | B (a compound having 3 or more and less than 10 is denoted as B) | B (a compound having 3 or more and less than 10 is denoted as B) |  | 
7 | CCO[C@@H]1C[C@H]2C(=O)NC3(CCC3)C(=O)N(C)[C@@H](C3CCCC3)C(=O)N(C)[C@H](C(=O)N3CCOCC3)CC(=O)N(C)[C@@H](CC(C)C)C(=O)N[C@@H]([C@H](C)CC)C(=O)N(C)CC(=O)N(C)[C@H]3CCCCN(C3=O)[C@@H](Cc3ccc(C(F)(F)F)cc3)C(=O)N(C)CC(=O)N[C@@H](CCc3cc(F)c(C(F)(F)F)c(F)c3)C(=O)N2C1 [PP0806] | B (a compound having 3 or more and less than 10 is denoted as B) | B (a compound having 3 or more and less than 10 is denoted as B) |  | 
8 | CCO[C@@H]1C[C@H]2C(=O)NC3(CCC3)C(=O)N(C)[C@@H](C3CCCC3)C(=O)N(C)[C@H](C(=O)N3CCOCC3)CC(=O)N(C)[C@@H](CC(C)C)C(=O)N[C@@H]([C@H](C)CC)C(=O)N(C)CC(=O)N(C)[C@H]3CCCCCN(C3=O)[C@@H](Cc3ccc(C(F)(F)F)cc3)C(=O)N(C)CC(=O)N[C@@H](CCc3cc(F)c(C(F)(F)F)c(F)c3)C(=O)N2C1 [PP0815] |  |  | B (a compound having 3 or more and less than 10 is denoted as B) | B (a compound having 3 or more and less than 10 is denoted as B)
9 | CCO[C@@H]1C[C@H]2C(=O)NC3(CCC3)C(=O)N(C)[C@@H](C3CCCC3)C(=O)N(C)[C@H](C(=O)N3CCOCC3)CC(=O)N(C)[C@@H](CC(C)C)C(=O)N[C@@H](C3CC(F)(F)C3)C(=O)N(C)CC(=O)N(C)[C@H]3CCCCCN(C3=O)[C@@H](Cc3ccc(C(F)(F)F)cc3)C(=O)N(C)CC(=O)N[C@@H](CCc3cc(F)c(C(F)(F)F)c(F)c3)C(=O)N2C1 [PP0816] |  |  | A (a compound having 10 or more and less than 20 is denoted as A) | B (a compound having 3 or more and less than 10 is denoted as B)
10 | CC[C@H](C)[C@@H]1NC(=O)[C@H](CC(C)C)N(C)C(=O)C[C@@H](C(=O)N2CCOCC2)N(C)C(=O)[C@H](C2CCCC2)N(C)C(=O)C2(CCC2)NC(=O)[C@]2(C)CCCN2C(=O)[C@H](CCc2cc(F)c(C(F)(F)F)c(F)c2)NC(=O)CN(C)C(=O)[C@H](Cc2ccc(C(F)(F)F)cc2)N2CCCCC[C@@H](C2=O)N(C)C(=O)CN(C)C1=O [PP0817] |  |  | A (a compound having 10 or more and less than 20 is denoted as A) | B (a compound having 3 or more and less than 10 is denoted as B)
11 | CCO[C@@H]1C[C@H]2C(=O)NC3(CCC3)C(=O)N(C)[C@@H](C(CC)CC)C(=O)N(C)[C@H](C(=O)N3CCOCC3)CC(=O)N(C)[C@@H](CC(C)C)C(=O)N[C@@H]([C@@H](C)CC)C(=O)N(C)CC(=O)N(C)[C@H]3CCCCCN(C3=O)[C@@H](Cc3ccc(C(F)(F)F)cc3)C(=O)N(C)CC(=O)N[C@@H](CCc3cc(F)c(C(F)(F)F)c(F)c3)C(=O)N2C1 [PP0820] |  |  | A (a compound having 10 or more and less than 20 is denoted as A) | B (a compound having 3 or more and less than 10 is denoted as B)
12 | CCO[C@@H]1C[C@H]2C(=O)NC3(CCC3)C(=O)N(C)[C@@H]([C@H](C)CC)C(=O)N(C)[C@H](C(=O)N3CCOCC3)CC(=O)N(C)[C@@H](CC(C)C)C(=O)N[C@@H]([C@@H](C)CC)C(=O)N(C)CC(=O)N(C)[C@H]3CCCCCN(C3=O)[C@@H](Cc3ccc(C(F)(F)F)cc3)C(=O)N(C)CC(=O)N[C@@H](CCc3cc(F)c(C(F)(F)F)c(F)c3)C(=O)N2C1 [PP0821] |  |  | A (a compound having 10 or more and less than 20 is denoted as A) | B (a compound having 3 or more and less than 10 is denoted as B)
13 | CCO[C@@H]1C[C@H]2C(=O)NC3(CCC3)C(=O)N(C)[C@@H](C3CCCC3)C(=O)N(C)[C@H](C(=O)N3CCOCC3)CC(=O)N(C)[C@@H](CC(C)C)C(=O)N[C@@H]([C@@H](C)CC)C(=O)N(C)CC(=O)N(C)[C@H]3CC=C(C)CN(C3=O)[C@@H](Cc3ccc(C(F)(F)F)cc3)C(=O)N(C)CC(=O)N[C@@H](CCc3cc(F)c(C(F)(F)F)c(F)c3)C(=O)N2C1 [PP0826] |  |  | C (A compound having a KD ratio of 0.1 or more and less than 3 is denoted as C) | B (a compound having 3 or more and less than 10 is denoted as B)
14 | CCO[C@@H]1C[C@H]2C(=O)NC3(CCC3)C(=O)N(C)[C@@H](C3CCCC3)C(=O)N(C)[C@H](C(=O)N3CCOCC3)CC(=O)N(C)[C@@H](CC(C)C)C(=O)N[C@@H]([C@@H](C)CC)C(=O)N(C)CC(=O)N(C)[C@H]3C[C@H]4C[C@H]4CN(C3=O)[C@@H](Cc3ccc(C(F)(F)F)cc3)C(=O)N(C)CC(=O)N[C@@H](CCc3cc(F)c(C(F)(F)F)c(F)c3)C(=O)N2C1 [PP0829] |  |  | B (a compound having 3 or more and less than 10 is denoted as B) | C (A compound having a KD ratio of 0.1 or more and less than 3 is denoted as C)
15 | CC[C@H](C)[C@@H]1NC(=O)[C@H](COC)N(C)C(=O)C[C@@H](C(=O)N2CCOCC2)N(C)C(=O)[C@H](C2CCCC2)N(C)C(=O)C2(CCC2)NC(=O)[C@@H]2CC(F)(F)CN2C(=O)[C@H](CCc2cc(F)c(C(F)(F)F)c(F)c2)NC(=O)CN(C)C(=O)[C@H](Cc2ccc(C(F)(F)F)cc2)N2CCCCC[C@@H](C2=O)N(C)C(=O)CN(C)C1=O [PP0834] |  |  | A (a compound having 10 or more and less than 20 is denoted as A) | B (a compound having 3 or more and less than 10 is denoted as B)
